Results published in patent publication US10351525B2, “Beta lactamase inhibitors” (Oxford University Innovation Limited, priority 2014, dated 2019).

What was measured:
IMP-1 = target: T1, IMP-1 (Serratia marcescens, UniProt P52699); experiment: MBL screening assay (IC50), IMP-1; assay type: biochemical
T1 construct: made in house; host or cells: Escherichia coli
Method: Recombinant forms of NDM-1, NDM-1 M67C, VIM-1, VIM-2, SPM-1, IMP-1 and BcII MBLs were produced in Escherichia coli as described in J. Med. Chem. 56, 6945-6953 (2013) and Makena et al Chem MechCHem 8, 1923-9 (2013). Purified VIM-2 protein was dialysed into fresh crystallization buffer (50 mM HEPES pH 7.5, 150 mM NaCl and […], concentrated to 7.5 mg/mL and used for crystallographic analyses.
Kinetic and inhibition analyses and UV-VIS studies^16 against bacterial MBLs were performed as described by Van Berkel et al in J. Med. Chem. 56, 6945-6953 (2013) and Makena et al Chem MechCHem 8, 1923-9 (2013).
The experiments were performed by using a NovaStar microplate reader (using path length correction) and were performed at r.t. (24-25° C.). All enzymes and substrates were dissolved in the assay buffer: 50 mM HEPES-NaOH buffer (pH 7.2) supplemented with 1 μg/mL BSA (to minimize the denaturation of the enzyme), 1 μM ZnSO4 and 0.01% Triton 100. Screening was carried out against a panel of MBLs including NDM-1, VIM-1, VIM-2, SPM-1 (Sao Paulo MBL-1) and IMP-1 and the non-clinically relevant model MBL Bacillus cereus (BcII).
The kinetic values determined were the means from at least three independent measurements. […] The IC50 values were determined from the plot of activity (steady state rate) versus inhibitor concentration using the same software. […]

PBP5 (dacA) from E. coli = PBP5 (dacA) from E. coli (Escherichia coli, UniProt P0AEB2); experiment: Inhibition studies for penicillin binding proteins, PBP5; assay type: biochemical; details: for remaining activity at 100 µM: read-out: RA (residual activity); for Inhibition verdict: key: N.I.—not inhibited
PBP5 (dacA) from E. coli, sequence (P0AEB2 30-403): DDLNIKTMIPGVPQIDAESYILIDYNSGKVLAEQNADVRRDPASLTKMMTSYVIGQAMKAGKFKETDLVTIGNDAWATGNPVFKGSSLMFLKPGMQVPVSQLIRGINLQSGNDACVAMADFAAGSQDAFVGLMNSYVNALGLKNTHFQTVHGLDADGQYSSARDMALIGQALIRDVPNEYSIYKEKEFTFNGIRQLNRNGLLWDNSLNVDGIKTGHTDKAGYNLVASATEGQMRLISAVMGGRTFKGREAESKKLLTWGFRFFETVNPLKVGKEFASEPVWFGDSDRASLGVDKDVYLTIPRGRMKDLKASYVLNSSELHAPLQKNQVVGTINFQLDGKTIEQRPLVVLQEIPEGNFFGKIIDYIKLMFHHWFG
Method: (§1) To investigate the selectivity of ML302/ML302F for bacterial MBLs, activity was tested against TEM-1 (a Class A SBL), PBP-5 (penicillin-binding protein 5 or dacA) and PBP-6 (penicillin-binding protein 6, or dacC) from E. coli, hHAT (human histone acetyltransferase) and hHDAC (human histone deacetylase). TEM-1, PBP-5 and -6 and hHAT are known to be inhibited by rhodanines. Selectively against hACE-2 (Angiotensin converting enzyme 2) and hHAGH (Hydroxyacylglutathione hydrolase, human Glyoxylase II) was also tested.
The inhibition analyses were performed using the method previously described for PBP-3 (van Berkel, S. S. et al. Binding of (5 S)-penicilloic acid to penicillin binding protein 3.ACS Chem. Biol. 8, 2112-2116 (2013)). In brief: ML302 and ML302F were initially screened at a single concentration (100 μM) in duplicate. Inhibition of the PBP acylation rate by the chromogenic β-lactam Nitrocefin was determined by pre-incubation of the appropriate amount of enzyme (dacA 2 μM and dacC 6.8 μM, respectively) and inhibitor in the assay buffer (50 mM HEPES-NaOH buffer (pH 7.2) supplemented with 200 mM NaCl and 0.01% Triton 100) for 10 min. at r.t. prior to the initiation of the assay by the addition of nitrocefin (100 μM final concentration). The hydrolysis of Nitrocefin was monitored by following the variation in absorbance at 492 nm using 96 well flat bottom plates (UV-STAR Microplate (655801) or Greiner Bio-One). The experiments were performed using a PHERAstar FS—BMG Labtech microplate reader (using path length correction) at r.t. (24-25° C.). All enzymes and inhibitors were prepared in the assay buffer.

hHDAC = experiment: Inhibition studies hHDAC; assay type: biochemical, human; for Inhibition verdict: key: N.I.—not inhibited
Method: as §1
(§2) The inhibition analyses for human histone acetyltransferases (HAT), HDAC hHDAC (human histone deacetylase), hACE-2 (Angiotensin converting enzyme 2) and hHAGH (Hydroxyacylglutathione hydrolase, human Glyoxylase II) were performed using the commercially available HAT Assay Kit (Active Motif, catalogue No. 56100 (2009)), hHDAC (Active Motif, catalogue No. 56200 (2013)), hACE-2 (ACE-2 (R&D Systems) and hHAGH ((R&D Systems).

hHAT = target: T2, hHAT (Homo sapiens, UniProt Q09472); experiment: Inhibition studies hHAT (HAT Assay Kit); assay type: biochemical; for Inhibition verdict: key: N.I.—not inhibited
T2 construct: purchased Active Motif 56100
T2 sequence (Q09472 1284-1673 limits assumed): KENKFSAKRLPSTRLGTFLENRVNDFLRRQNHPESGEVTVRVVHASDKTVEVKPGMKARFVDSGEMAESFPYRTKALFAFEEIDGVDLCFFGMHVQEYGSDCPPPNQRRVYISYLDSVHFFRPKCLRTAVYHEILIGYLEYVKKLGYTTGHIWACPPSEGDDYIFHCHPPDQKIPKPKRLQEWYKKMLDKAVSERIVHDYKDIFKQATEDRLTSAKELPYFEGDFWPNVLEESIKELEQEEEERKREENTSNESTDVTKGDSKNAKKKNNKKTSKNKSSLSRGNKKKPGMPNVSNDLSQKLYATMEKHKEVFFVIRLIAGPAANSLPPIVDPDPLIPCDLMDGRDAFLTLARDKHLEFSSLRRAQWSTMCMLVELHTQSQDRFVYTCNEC
Method: as §1, §2

[1] = system: MBL producing Escherichia coli and Klebsiella pneumoniae strains; experiment: Potentiation of meropenem; assay type: cell-based; details: for Inhibitor concentration that conferred meropenem sensitivity (lowest tested): IMP producers; for Synergy with meropenem: MBL producing strains
Method: Further studies were carried out to determine if ML302F/ML302 potentiates β-lactam antibiotic activity in clinically derived strains containing IMP-1, IMP-4, VIM-4 or NDM-1, which are the most commonly observed MBLs in clinical isolates. All strains producing MBLs were confirmed as resistant to meropenem at the Clinical and Laboratory Standards Institute (U.S.A.) defined breakpoint of 8 μg/mL for Enterobacteriace (see Table 2 below). The minimum inhibitory concentration (MIC) of meropenem against wildtype and MBL producing Escherichia coli and Klebsiella pneumoniae strains was determined with and without increasing concentrations of ML302 or ML302F. Clinical and Laboratory Standards Institute. 2012. Methods for dilution antimicrobial susceptibility tests for bacteria that grow aerobically; 9th ed. Approved standard M07-A9. CLSI, Wayne, Pa.; and Clinical and Laboratory Standards Institute. 2012. Performance standards for antimicrobial susceptibility testing; 22nd informational supplement M100-S22. CLSI, Wayne, Pa.

T1 sequence (P52699 19-246 limits assumed): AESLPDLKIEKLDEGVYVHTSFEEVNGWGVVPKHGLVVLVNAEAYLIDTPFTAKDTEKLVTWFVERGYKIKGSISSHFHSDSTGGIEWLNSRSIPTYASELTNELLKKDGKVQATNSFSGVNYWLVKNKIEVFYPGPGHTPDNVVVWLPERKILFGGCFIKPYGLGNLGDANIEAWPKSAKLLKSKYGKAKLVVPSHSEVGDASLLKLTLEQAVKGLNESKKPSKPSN

Structure (SMILES): CN1CCN(NC(=O)CN2C(=O)C(=Cc3c(Cl)ccc(Cl)c3Cl)SC2=S)CC1 (mixture of isomers) [ML302, N-(4-Methylpiperazin-1-yl)-2-(4-oxo-2-thioxo-5-(2,3,6-trichlorobenzylidene)thiazolidin-3-yl)acetamide]
- IC50 (IMP-1): 175 ± 60 nM
- remaining activity at 100 µM (PBP5 (dacA) from E. coli): 105 ± 5.7%
- Inhibition verdict (hHDAC): N.I.
- RA (residual activity) (hHDAC): 108 ± 3%
- Inhibition verdict (hHAT): N.I.
- RA (residual activity) (hHAT): 93 ± 15%
- Inhibitor concentration that conferred meropenem sensitivity (lowest tested) [1]: 10 µg/mL
- Synergy with meropenem [1]: Synergy between ML302 and meropenem was observed for all MBL producing strains
- Inhibitor concentration giving meropenem sensitivity ([1]; read-out: Inhibitor concentration at which clinically relevant meropenem sensitivity (MIC<8 μg/mL) achieved): 50 µg/mL

Structure (SMILES): O=C(O)C(S)=Cc1c(Cl)ccc(Cl)c1Cl (racemic) [ML302F, 2-Mercapto-3-(2,3,6-trichlorophenyl)acrylic acid]
- IC50 (IMP-1): 2.88 nM
- Inhibition verdict (PBP5 (dacA) from E. coli; 100 μM): N.I.
- remaining activity at 100 µM (PBP5 (dacA) from E. coli): 99.2 ± 6.4%
- Inhibition verdict (hHDAC): N.I.
- RA (residual activity) (hHDAC): 116 ± 7%
- Inhibition verdict (hHAT): N.I.
- RA (residual activity) (hHAT): 85 ± 9%
- Meropenem MICs in the presence of ML302F relative to the same ML302 concentration, fold higher [1]: up to 8 fold
- Inhibitor concentration that conferred meropenem sensitivity (lowest tested) [1]: 10 µg/mL
- Synergy with meropenem [1]: displayed synergy with meropenem
